These results are taken from ChEMBL document CHEMBL1137495, “Synthesis and TNF expression inhibitory properties of new thalidomide analogues derived via Heck cross coupling” (2007).

The source made the active and inactive calls. No cut-off for these calls is given here.

Test [1] relates to Jurkat. Briefly: Inhibition of TNF gene expression in FRT Jurkat TNF reporter cells at 100 uM. As to conditions: Homo sapiens. The format is functional.
The test system of test [2] is Jurkat. Briefly: Inhibition of TNF gene expression in FRT-Jurkat TNF reporter cells at 1 uM. The format is functional. To be noted: Homo sapiens.
Test [3] has as its system Jurkat. Briefly: Inhibition of TNF gene expression in FRT Jurkat TNF reporter cells at 10 uM. The format is functional. To be noted: Homo sapiens.
Test [4] deals with Jurkat. Briefly: Viability of the FRT Jurkat TNF reporter cells at 1 uM. The format is functional, Homo sapiens.
For test [5], the system named is Jurkat. Briefly: Increase in inhibition of TNF gene expression in FRT Jurkat TNF reporter cells after 30 hrs. Type of test: functional, cell-based. As to conditions: Homo sapiens.
Test [6] concerns Jurkat. Briefly: Increase in Cytotoxicity in human FRT Jurkat TNF reporter cell at 100 uM. The format is functional, cell-based.
The subject of test [7] is Jurkat. Briefly: Increase in cell death in human FRT Jurkat TNF reporter cell. Type of test: functional, cell-based.

One may read the inhibition as how much of the control response was suppressed. Higher therefore signals strong suppression. `O=C1CCC(N2C(=O)c3ccccc3C2=O)C(=O)N1` (centres undefined) [THALIDOMIDE] had an inhibition at 100 µM in the test on Jurkat [1] of 38%. For the same compound, 1 µM produced 31% inhibition with Jurkat [2]. Besides, the inhibition at 10 µM in the test with Jurkat [3] came to 35%.

With `O=C1CCC(N2C(=O)c3cccc(I)c3C2=O)C(=O)N1` (centres undefined), the inhibition at 100 µM in the test on Jurkat [1] was determined as 37%.

In the test on Jurkat [1], `CCCCOC(=O)/C=C/c1ccc2c(c1)C(=O)N(C1CCC(=O)NC1=O)C2=O` (centres undefined) yielded an inhibition at 100 µM of 42%.

The compound `O=C1C=C(c2ccc3c(c2)C(=O)N(C2CCC(=O)NC2=O)C3=O)CCC1` (centres undefined) showed an inhibition at 100 µM in the test on Jurkat [1] of 35%.

In turn, `O=C1c2ccccc2C(=O)N1c1ccccc1I` showed an inhibition at 100 µM with Jurkat [1] of 40%.

`COC(=O)/C=C/c1cccc2c1C(=O)N(C1CCC(=O)NC1=O)C2=O` (centres undefined): the inhibition at 100 µM in the test with Jurkat [1] was determined as 40%.

In the test on Jurkat [1], `O=C1C=C(c2cccc(N3C(=O)c4ccccc4C3=O)c2)CCC1` came in with an inhibition at 100 µM of 47%.

On to `O=C1c2ccccc2C(=O)N1c1cccc(I)c1`, for which the inhibition at 100 µM in the test on Jurkat [1] came to 37%.

On to `O=C1CCC(N2C(=O)c3cccc(C4CC=CO4)c3C2=O)C(=O)N1` (centres undefined), for which 100 µM produced 50% inhibition in the test with Jurkat [1].

Compound `CCCCO/C=C/c1ccccc1N1C(=O)c2ccccc2C1=O` registered an inhibition at 100 µM with Jurkat [1] of 47%.

Regarding `O=C1CCCN1/C=C/c1cccc(N2C(=O)c3ccccc3C2=O)c1`, the inhibition at 100 µM in the test on Jurkat [1] was 36%.

`CCCCO/C=C/c1ccc(N2C(=O)c3ccccc3C2=O)cc1`: testing at 100 µM with Jurkat [1] gave an inhibition of 48%.

Consider `COC(=O)/C=C/c1ccc(N2C(=O)c3ccccc3C2=O)cc1`, for which, in the test with Jurkat [1], testing at 100 µM gave an inhibition of 41%.

In the test with Jurkat [1], `O=C1c2ccccc2C(=O)N1c1cccc(C2CC=CO2)c1` (centres undefined) came in with an inhibition at 100 µM of 50%.

Compound `O=C1C=C(c2cccc3c2C(=O)N(C2CCC(=O)NC2=O)C3=O)CCC1` (centres undefined) yielded an inhibition at 100 µM in the test on Jurkat [1] of 38%.

In the test with Jurkat [1], `CCCCO/C=C/c1ccc2c(c1)C(=O)N(C1CCC(=O)NC1=O)C2=O` (centres undefined) came in with an inhibition at 100 µM of 69%. For the same compound, in the test on Jurkat [2], at 1 µM the inhibition was 32%. The results for the Activity with Jurkat [4] and in the test with Jurkat [5] were 100% and “Dose-dependent effect”, respectively. This compound also yielded an inhibition at 10 µM with Jurkat [3] of 52%. In addition, the outcome in the test with Jurkat [6] and in the test on Jurkat [7] was Active.

In the test with Jurkat [1], `CCCCOC(=O)/C=C/c1ccc(N2C(=O)c3ccccc3C2=O)cc1` came in with an inhibition at 100 µM of 35%.

Compound `CCCCO/C=C/c1cccc(N2C(=O)c3ccccc3C2=O)c1` gave an inhibition at 100 µM in the test on Jurkat [1] of 49%.

Regarding `O=C1CCC(N2C(=O)c3ccc(Br)cc3C2=O)C(=O)N1` (centres undefined), the inhibition at 100 µM in the test with Jurkat [1] came out at 35%.

Regarding `COC(=O)/C=C/c1cccc(N2C(=O)c3ccccc3C2=O)c1`, 100 µM produced 44% inhibition in the test on Jurkat [1].

In the test with Jurkat [1], `O=C1c2ccccc2C(=O)N1c1ccc(I)cc1` gave an inhibition at 100 µM of 36%.

Turning to `O=C1c2ccccc2C(=O)N1c1ccc(C2CC=CO2)cc1` (centres undefined), at 100 µM the inhibition in the test on Jurkat [1] was 38%.

`CCCCOC(=O)/C=C/c1cccc(N2C(=O)c3ccccc3C2=O)c1` yielded an inhibition at 100 µM in the test on Jurkat [1] of 35%.

`CCCCOC(=O)/C=C/c1cccc2c1C(=O)N(C1CCC(=O)NC1=O)C2=O` (centres undefined) showed an inhibition at 100 µM in the test on Jurkat [1] of 44%.

In the test on Jurkat [1], `CCCCO/C=C/c1cccc2c1C(=O)N(C1CCC(=O)NC1=O)C2=O` (centres undefined) returned an inhibition at 100 µM of 47%.

In the case of `O=C1CCC(N2C(=O)c3cccc(/C=C/N4CCCC4=O)c3C2=O)C(=O)N1` (centres undefined), the inhibition at 100 µM in the test with Jurkat [1] amounted to 38%.

Compound `O=C1CCC(N2C(=O)c3ccc(/C=C/C4CC=CO4)cc3C2=O)C(=O)N1` (centres undefined) had an inhibition at 100 µM in the test with Jurkat [1] of 40%.

The compound `O=C1CCC(N2C(=O)c3ccc(/C=C/N4CCCC4=O)cc3C2=O)C(=O)N1` (centres undefined) registered an inhibition at 100 µM in the test on Jurkat [1] of 36%.

The compound `COC(=O)/C=C/c1ccc2c(c1)C(=O)N(C1CCC(=O)NC1=O)C2=O` (centres undefined) had an inhibition at 100 µM in the test on Jurkat [1] of 39%.

Consider `CCCCOC(=O)/C=C/c1ccccc1N1C(=O)c2ccccc2C1=O`, for which, in the test on Jurkat [1], the inhibition at 100 µM is 52%.

Take `COC(=O)/C=C/c1ccccc1N1C(=O)c2ccccc2C1=O`: testing at 100 µM in the test with Jurkat [1] gave an inhibition of 48%.
